This note sets out measurements from publication PMC3655044, “Construction of a chimeric thermoacidophilic beta-endoglucanase” (BMC Biochemistry, 2013).

The experiment deals with T1, CelA-SSO1949-CelA.
T1 construct: 70 aa CelA + 163 aa SSO1949 + 29 aa CelA, 262 aa, ~29 kDa, no purification tag
The experiment can be described thus: FRET fluorescence assay, initial rates. The class given is biochemical, Thermotoga maritima; Saccharolobus solfataricus. To be noted: 80°C; pH 3; 0.1 M sodium phosphate. The text has this: FRET fluorescence assay, initial rates on CelA-SSO1949-CelA

Take `CN(C)c1ccc(/N=N/c2ccc(NC(=S)N[C@H]3[C@H](O)[C@@H](O)[C@H](O[C@H]4[C@H](O)[C@@H](O)[C@H](O[C@H]5[C@H](O)[C@@H](O)[C@H](O[C@H]6[C@H](O)[C@@H](O)[C@H](O[C@H]7[C@H](O)[C@@H](O)[C@H](O[C@H]8[C@H](O)[C@@H](O)[C@H](SCC(=O)NCCNc9cccc%10c(S(=O)(=O)O)cccc9%10)O[C@@H]8CO)O[C@@H]7CO)O[C@@H]6CO)O[C@@H]5CO)O[C@@H]4CO)O[C@@H]3CO)cc2)cc1` [fluorescent cellohexaoside, sodium N-{2-N-[(S-(4-deoxy-4-dimethylamino-phenylazophenylthioureido-β-D-glucopyranosyl)-(1→4)-β-D-glucopyranosyl-(1→4)-β-D-glucopyranosyl-(1→4)-β-D-glucopyranosyl-(1→4)-β-D-glucopyranosyl-(1→4)-β-D-glucopyranosyl)-2-thioacetyl]aminoethyl}-1-naphthylamine-5-sulphonate]: the Km worked out at 1.74 ± 0.15 µM.

As usually defined, the Km is the substrate concentration at which the rate is half of its maximum.
